Here are results for eleven compounds from PMC3375835 (Tetrahedron letters, 2012).

Common to all, as to assay type: cell-based
The test system of data set [1] is HIV-1NL4–3. Put plainly: Anti-HIV activity against HIV-1NL4–3 infected MT-4 cells. The following applies: for EC50 (concentration of the test sample that was effective to suppress HIV replication by 50%): '-' = No activity (footnote b); for EC50: read-out: EC50 (concentration of the test sample that was effective to suppress HIV replication by 50%), '-' = No activity (footnote b).

Data set [2] is described as follows: Cytotoxicity to mock-infected MT-4 cells. To be noted: human.
The test system of data set [3] is mock-infected MT-4 cells. The data set is described as follows: Cytotoxicity to mock-infected MT-4 cells. To be noted: read-out: CC50 (concentration of test sample that was cytotoxic to 50% of the mock-infected cells).

Turning to `Cc1cn([C@H]2C[C@H](N=[N+]=[N-])[C@@H](CO)O2)c(=O)[nH]c1=O` [AZT, 3′-azido-3′-deoxythymidine, reference compound], the “SI (Selectivity index = CC50/EC50)” value in data set [1] (CC50/EC50) amounted to 1385. This compound displayed a CC50 in data set [2] of 140 µM.
In data set [2], `C=C(C)[C@@H]1CC[C@]2(C(=O)O)CC[C@]3(C)[C@H](CC[C@@H]4[C@@]5(C)CC[C@H](OC(=O)CC(C)(C)C(=O)O)C(C)(C)[C@@H]5CC[C@]43C)[C@@H]12` [Bevirimat (14), 3-O-(3′,3′-dimethylsuccinyl)betulinic acid, reference compound] showed a CC50 of 13.2 µM.
As to `C#CCOC1CCC2(C)C(CCC3(C)C2CCC2C4C(C(=C)C)CCC4(CO[Si](C)(C)C(C)(C)C)CCC23C)C1(C)C` (stereo not drawn) [Compound 2], the “EC50 (concentration of the test sample that was effective to suppress HIV replication by 50%)” value in data set [1] was “- ^b”.
With `C#CCOC(=O)OC1CCC2(C)C(CCC3(C)C2CCC2C4C(C(=C)C)CCC4(CO[Si](C)(C)C(C)(C)C)CCC23C)C1(C)C` (stereo not drawn) [Compound 3], the “EC50 (concentration of the test sample that was effective to suppress HIV replication by 50%)” value in data set [1] is “-”.
Take `C#CCOC1CCC2(C)C(CCC3(C)C2CCC2C4C(C(=C)C)CCC4(CO)CCC23C)C1(C)C` (stereo not drawn) [Compound 4]: in data set [1], the “EC50 (concentration of the test sample that was effective to suppress HIV replication by 50%)” value is reported as “-”.
For `C#CCOC(=O)OC1CCC2(C)C(CCC3(C)C2CCC2C4C(C(=C)C)CCC4(CO)CCC23C)C1(C)C` (stereo not drawn) [Compound 5], the “EC50 (concentration of the test sample that was effective to suppress HIV replication by 50%)” value in data set [1] is “-”.
The same measure, in the same setting: in the case of `C#CCOC1CCC2(C)C(CCC3(C)C2CCC2C4C(C(=C)C)CCC4(COC(=O)CC(C)(C)C(=O)O)CCC23C)C1(C)C` (stereo not drawn) [Compound 7] it was “-”; in that of `C=C(C)C1CCC2(CO[Si](C)(C)C(C)(C)C)CCC3(C)C(CCC4C5(C)CCC(OC(=O)OCc6cn(C7CC(n8cc(C)c(=O)[nH]c8=O)OC7CO)nn6)C(C)(C)C5CCC43C)C12` (stereo not drawn) [Compound 9], “inactive and -”.
In the case of `C=C(C)C1CCC2(COC(=O)CC(C)(C)C(=O)O)CCC3(C)C(CCC4C5(C)CCC(OCc6cn(C7CC(n8cc(C)c(=O)[nH]c8=O)OC7CO)nn6)C(C)(C)C5CCC43C)C12` (stereo not drawn) [Compound 13], the EC50 in data set [1] came out at 0.35 µM. Further, the CC50 in data set [3] was over 4.6 µM.
Take `C#CCOC(=O)[C@]12CC[C@@H](C(=C)C)[C@@H]1[C@H]1CC[C@@H]3[C@@]4(C)CC[C@H](OC(=O)CC(C)(C)C(=O)O)C(C)(C)[C@@H]4CC[C@@]3(C)[C@]1(C)CC2` [Compound 15]: in data set [1], the EC50 is 0.067 µM. Besides, in data set [3], the CC50 came to 15.3 µM.
`C=C(C)[C@@H]1CC[C@]2(C(=O)OCc3cn([C@H]4C[C@H](n5cc(C)c(=O)[nH]c5=O)O[C@@H]4CO)nn3)CC[C@]3(C)[C@H](CC[C@@H]4[C@@]5(C)CC[C@H](OC(=O)CC(C)(C)C(=O)O)C(C)(C)[C@@H]5CC[C@]43C)[C@@H]12` [Compound 16]: the EC50 in data set [1] was 0.1 µM. The CC50 in data set [3] came out at 11.2 µM.
